From PubChem BioAssay AID1963962 (Molecular Pharmacology Branch, DTP, NCI, 2024)

Test system: 967376-340-R-J2-PDC multicell spheroid viability
Experiment: Anticancer human tumor 967376-340-R-J2-PDC patient-derived colon adenocarcinoma cell line growth inhibition [PI3K]
Conditions: for IC50: curve of first compound; for viability, T/C: stronger effect = lower value
Description: Combinatorial screen of targeted agents with the PI3K inhibitors inavolisib, alpelisib, duvelisib, and copanlisib in multi-cell type tumor spheroids
A high-throughput screen of multi-cell type tumor spheroids was designed to identify active combinations of targeted small molecules and PI3K pathway inhibitors. Complex spheroids include a stromal component modeled by human endothelial cells (HUVEC) and fibroblasts modeled by human mesenchymal stem cells (MSCs). The concentration ranges selected for each drug and investigational agent were based upon clinically achievable concentrations if the clinical Cmax of the agent was known.
Compounds. The drugs and investigational agents: inavolisib (NSC800729), alpelisib (NSC765974), duvelisib (NSC772469), copanlisib (NSC816437), ipatasertib (NSC767898), afuresertib (NSC778305), talazoparib (NSC767125), sapanisertib (NSC764658), selumetinib (NSC741078), tovorafenib (DAY101, NSC766906), vemurafenib (NSC761431), ravoxertinib (NSC781343), sotorasib (NSC818433), MRTX1133 (NSC 836407), abemaciclib (NSC 768073), palbociclib (NSC758247), venetoclax (NSC 766270), SY5609 (NSC837396), enzalutamide (NSC755605), and darolutamide (NSC825331), were obtained from the National Cancer Institute (NCI) Developmental Therapeutics Program Chemical Repository. The FDA-approved anticancer drug set is available from the NCI Developmental Therapeutics Program. […] The stock solutions were prepared in dimethyl sulfoxide (DMSO, Sigma-Aldrich, St. Louis, MO, cat. D2650) at 800-fold the tested concentration and stored at -70 degrees C prior to their use. All drugs and investigational agents were tested over a range starting from a high concentration at or near the clinical Cmax and decreasing in half-log increments. If the clinical Cmax for an agent had not been determined, the highest concentration tested was 10 microM.
Cell Culture. All cells were maintained in an incubator at 37 degrees C and 5% CO2 with 95% humidity. The PDC lines were cultured according to standard operating procedures established by the NCI PDMR (https://pdmr.cancer.gov/sops/default.htm). All PDCs were thawed and cultured in Matrigel-coated flasks prepared with a working solution of 1X Ham's F-12 nutrient mix, without supplementation (Invitrogen, Waltham, MA, cat. 11765054), 100 U/mL penicillin-streptomycin (Invitrogen, cat. 15140122), and 2.5% Matrigel (Corning Inc., Corning, NY, cat. 354248) for the first three passages. The 354836-022-R-J1-PDC, 475296-252-R-J1-PDC, and 997726-040-R-J2-PDC lines were cultured in 6A media, which includes advanced DMEM/F-12 (Thermo Fisher Scientific, cat. 12634028), 10 mM HEPES (Thermo Fisher Scientific, cat. 15630080), 1X GlutaMAX supplement (Thermo Fisher Scientific, cat. 35050061), 0.1 mg/mL primocin (InvivoGen, San Diego, CA, cat. ant-pm-2), 10% defined fetal bovine serum, heat inactivated (HyClone Laboratories Inc., Logan, UT, cat. SH30070.03HI), 50% L-WRN conditioned media (ATCC, cat. CRL-3276), 1.25 mM N-Acetyl-L-cysteine (Sigma-Aldrich, cat. A9165), 10 mM nicotinamide (Sigma-Aldrich, cat. N0636), 1X B-27 supplement (Thermo Fisher Scientific, cat. 17504044), 1X N-2 supplement (Thermo Fisher Scientific, cat. 17502048), and 10 microM Y-27632 dihydrochloride (Tocris Bioscience, Bristol, United Kingdom, cat. 1254). The 624824-186-R-J2-PDC line was cultured in 6C/Colon 1B media, which includes all 6A media components plus 50 ng/mL human EGF recombinant protein (Thermo Fisher Scientific, cat. PHG0311). […]

[1] = second compound 0.00316 µM, first compound 0.0316 µM
[2] = second compound 0.00316 µM, first compound 0.1 µM
[3] = second compound 0.00316 µM, first compound 0.316 µM
[4] = second compound 0.00316 µM, first compound 1 µM
[5] = second compound 0.00316 µM, first compound 3.16 µM
[6] = second compound 0.00316 µM, first compound 10 µM
[7] = second compound 0.01 µM, first compound 0.0316 µM
[8] = second compound 0.01 µM, first compound 0.1 µM
[9] = second compound 0.01 µM, first compound 0.316 µM
[10] = second compound 0.01 µM, first compound 1 µM
[11] = second compound 0.01 µM, first compound 3.16 µM
[12] = second compound 0.01 µM, first compound 10 µM
[13] = second compound 0.0316 µM, first compound 0.0316 µM
[14] = second compound 0.0316 µM, first compound 0.1 µM
[15] = second compound 0.0316 µM, first compound 0.316 µM
[16] = second compound 0.0316 µM, first compound 1 µM
[17] = second compound 0.0316 µM, first compound 3.16 µM
[18] = second compound 0.0316 µM, first compound 10 µM
[19] = second compound 0.1 µM, first compound 0.0316 µM
[20] = second compound 0.1 µM, first compound 0.1 µM
[21] = second compound 0.1 µM, first compound 0.316 µM
[22] = second compound 0.1 µM, first compound 1 µM
[23] = second compound 0.1 µM, first compound 3.16 µM
[24] = second compound 0.1 µM, first compound 10 µM
[25] = second compound 0.316 µM, first compound 0.0316 µM
[26] = second compound 0.316 µM, first compound 0.1 µM
[27] = second compound 0.316 µM, first compound 0.316 µM
[28] = second compound 0.316 µM, first compound 1 µM
[29] = second compound 0.316 µM, first compound 3.16 µM
[30] = second compound 0.316 µM, first compound 10 µM
[31] = second compound 1 µM, first compound 0.0316 µM
[32] = second compound 1 µM, first compound 0.1 µM
[33] = second compound 1 µM, first compound 0.316 µM
[34] = second compound 1 µM, first compound 1 µM
[35] = second compound 1 µM, first compound 3.16 µM
[36] = second compound 1 µM, first compound 10 µM
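Note: spheroids exposed to agents for 7 days before read-out.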
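Throughout, for viability, T/C: luminescence used as surrogate of cell viability.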

CNC(=O)c1ccc(N2C(=S)N(c3ccc(C#N)c(C(F)(F)F)c3)C(=O)C2(C)C)cc1F + CC(Nc1ccc2c(c1)OCCn1cc(N3C(=O)OCC3C(F)F)nc1-2)C(N)=O
IC50 (second compound 0.00316 µM): > 10 µM | IC50 (second compound 0.01 µM): > 10 µM | IC50 (second compound 0.0316 µM): > 10 µM | IC50 (second compound 0.1 µM): > 10 µM | IC50 (second compound 0.316 µM): > 10 µM | IC50 (second compound 1 µM): > 10 µM | viability, T/C [1]: 90.3% | viability, T/C [2]: 107% | viability, T/C [3]: 93.1% | viability, T/C [4]: 93.2% | viability, T/C [5]: 112% | viability, T/C [6]: 161% | viability, T/C [7]: 102% | viability, T/C [8]: 97.8% | viability, T/C [9]: 94.3% | viability, T/C [10]: 89.5% | viability, T/C [11]: 106% | viability, T/C [12]: 136% | viability, T/C [13]: 83.1% | viability, T/C [14]: 107% | viability, T/C [15]: 94.1% | viability, T/C [16]: 76.7% | viability, T/C [17]: 100% | viability, T/C [18]: 99.5% | viability, T/C [19]: 72.4% | viability, T/C [20]: 73.1% | viability, T/C [21]: 73.5% | viability, T/C [22]: 81.1% | viability, T/C [23]: 77.4% | viability, T/C [24]: 81% | viability, T/C [25]: 60.4% | viability, T/C [26]: 60.6% | viability, T/C [27]: 72.5% | viability, T/C [28]: 66.5% | viability, T/C [29]: 62.1% | viability, T/C [30]: 67.5% | viability, T/C [31]: 57.3% | viability, T/C [32]: 66% | viability, T/C [33]: 62.7% | viability, T/C [34]: 60.8% | viability, T/C [35]: 61.6% | viability, T/C [36]: 67.5%

C=CC(=O)N1CCN(c2nc(=O)n(-c3c(C)ccnc3C(C)C)c3nc(-c4c(O)cccc4F)c(F)cc23)C(C)C1 (centres undefined) + COc1c(OCCCN2CCOCC2)ccc2c3n(c(=NC(=O)c4cnc(N)nc4)nc12)CCN3
IC50 (second compound 0.00316 µM): > 10 µM | IC50 (second compound 0.01 µM): > 10 µM | IC50 (second compound 0.0316 µM): > 10 µM | IC50 (second compound 0.1 µM): > 10 µM | IC50 (second compound 0.316 µM): < 0.0316 µM | IC50 (second compound 1 µM): < 0.0316 µM | viability, T/C [1]: 112% | viability, T/C [2]: 101% | viability, T/C [3]: 91.7% | viability, T/C [4]: 92.6% | viability, T/C [5]: 111% | viability, T/C [6]: 70.2% | viability, T/C [7]: 95.5% | viability, T/C [8]: 97.8% | viability, T/C [9]: 90.8% | viability, T/C [10]: 80.4% | viability, T/C [11]: 84.8% | viability, T/C [12]: 73.5% | viability, T/C [13]: 74% | viability, T/C [14]: 81.7% | viability, T/C [15]: 73.1% | viability, T/C [16]: 70.3% | viability, T/C [17]: 85.6% | viability, T/C [18]: 79.8% | viability, T/C [19]: 55.3% | viability, T/C [20]: 78.6% | viability, T/C [21]: 63.9% | viability, T/C [22]: 66% | viability, T/C [23]: 84% | viability, T/C [24]: 52% | viability, T/C [25]: 50.5% | viability, T/C [26]: 41% | viability, T/C [27]: 41.3% | viability, T/C [28]: 40.3% | viability, T/C [29]: 50.1% | viability, T/C [30]: 42.6% | viability, T/C [31]: 33.6% | viability, T/C [32]: 36% | viability, T/C [33]: 29.6% | viability, T/C [34]: 34.5% | viability, T/C [35]: 37.9% | viability, T/C [36]: 39.5%
